Experimental data taken from patent US20260256789A1, “METHODS FOR TREATMENT OF CANCER” (Frontier Medicines Corporation, priority 2022, published 2026).

Target: T1, KRAS G12C (GMPPNP-loaded) and cRAF Ras-binding domain (Homo sapiens, UniProt P01116, C118S/C51S/C80L/G12C)
T1 construct: truncated version comprising amino acids 1-169
Test: Inhibition of KRAS G12C and cRAF binding (AlphaScreen)
Details: KRAS G12C preloaded with GTP analogue GMPPNP, 2 hours preincubation
Outline: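 Compounds (10-point, 1:3 from 50 μM; 2% DMSO) were incubated 2 h at room temperature with 0.5 nM GMPPNP-preloaded truncated Cys-light KRAS G12C, then 60-90 min with 0.75 nM GST-RBD of cRAF and AlphaScreen beads. Signal at 570 nm gave IC50 by 4-parameter regression, and a biotin-AviTag-GST counter assay excluded interference with the AlphaScreen readout.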

T1 sequence (P01116 1-169 isoform P01116-2 G12C/C51S/C80L/C118S): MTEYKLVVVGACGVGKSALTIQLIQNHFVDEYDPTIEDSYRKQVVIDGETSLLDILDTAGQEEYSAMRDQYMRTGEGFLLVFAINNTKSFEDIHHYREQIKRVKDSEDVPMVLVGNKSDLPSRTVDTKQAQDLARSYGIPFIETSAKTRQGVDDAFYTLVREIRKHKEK

| IC50 | SMILES |
| --- | --- |
| 10 to 100 nM | Cc1nccc(/C=C/C(=O)N2CC(CN(C)c3nc(OC[C@@]45CCCN4C[C@H](F)C5)nc4c(F)c(-c5nc(N)cc6cccc(F)c56)ncc34)C2)n1 [Example 141, (E)-1-(3-(((7-(3-amino-8-fluoroisoquinolin-1-yl)-8-fluoro-2-(((2R,7aS)-2-fluorotetrahydro-1H-pyrrolizin-7a(5H)-yl)methoxy)pyrido[4,3-d]pyrimidin-4-yl)(methyl)amino)methyl)azetidin-1-yl)-3-(2-methylpyrimidin-4-yl)prop-2-en-1-one] |
| 100 to 500 nM | Cc1cc(/C=C/C(=O)N2CC(CN(C)c3nc(OC[C@@]45CCCN4C[C@H](F)C5)nc4c(F)c(-c5cc(O)cc(Cl)c5C5CC5)ncc34)C2)nc(C)n1 [Example 204] |
| 10 to 100 nM | Cc1cc(N)nc(-c2ncc3c(N(C)[C@@H]4CCN(C(=O)/C=C/c5nc(C(C)C)no5)C4)nc(OC[C@@]45CCCN4C[C@H](F)C5)nc3c2F)c1C1CC1 [Example 170] |
| ≥ 500 nM | C=CC(=O)N1CC[C@@H](N(C)c2nc(OC[C@@]34CCCN3C[C@H](F)C4)nc3c(F)c(-c4cc(F)cc(F)c4C4CC4)ncc23)C1 [Example 249] |
| 100 to 500 nM | Cc1noc(/C=C/C(=O)N2CC[C@@H](N(C)c3nc(OCC45CCCN4CCC5)nc4c3C[C@@H](C)[C@H](c3nc(N)cc(C)c3C(F)(F)F)C4)C2)n1 [Example 124] |
| ≥ 500 nM | C=CC(=O)N1CC(CN(C)c2nc(OC[C@@]34CCCN3C[C@H](F)C4)nc3c2C[C@H](C)[C@@H](c2nc(N)cc(C)c2C(F)(F)F)C3)C1 [Example 137, 1-(3-((((6S,7S)-7-(6-amino-4-methyl-3-(trifluoromethyl)pyridin-2-yl)-2-(((2R,7aS)-2-fluorotetrahydro-1H-pyrrolizin-7a(5H)-yl)methoxy)-6-methyl-5,6,7,8-tetrahydroquinazolin-4-yl)(methyl)amino)methyl)azetidin-1-yl)prop-2-en-1-one] |
| < 10 nM | Cc1noc(/C=C/C(=O)N2CC[C@@H](N(C)c3nc(OC[C@@]45CCCN4C[C@H](F)C5)nc4c(F)c(-c5nc(N)cc6cccc(Cl)c56)ncc34)C2)n1 [Example 150, (E)-1-((R)-3-((7-(3-amino-8-chloroisoquinolin-1-yl)-8-fluoro-2-(((2R,7aS)-2-fluorotetrahydro-1H-pyrrolizin-7a(5H)-yl)methoxy)pyrido[4,3-d]pyrimidin-4-yl)(methyl)amino)pyrrolidin-1-yl)-3-(3-methyl-1,2,4-oxadiazol-5-yl)prop-2-en-1-one] |
